In ChEMBL document CHEMBL5058646 (2022) one finds inhibition, Tm and LogFC data, which are given here for 1 molecule.

Assay [1] concerns the target Vasopressin V1a receptor (Homo sapiens) (UniProt P37288). As to the kind of experiment: GPCRScan assay: inhibition of V1A. The arrangement: radioligand conc. used [nm], parental cells. To be noted: Compound concentration 10.0 uM.
Assay [2] concerns the target Casein kinase II subunit alpha (Homo sapiens) (UniProt P68400). As to the kind of experiment: CSNK2A1 SGC Tm panel (DSF). To be noted: Compound concentration 20.0 uM.
Assay [3] addresses Casein kinase II subunit alpha' (Homo sapiens) (UniProt P19784). Briefly: CSNK2A2 SGC Tm panel (DSF). To be noted: Compound concentration 20.0 uM.
Assay [4] concerns the target Myotonin-protein kinase (Homo sapiens) (UniProt Q09013). Briefly: DMPK1 SGC Tm panel (DSF). To be noted: Compound concentration 20.0 uM.
Assay [5] concerns the target Mitogen-activated protein kinase 10 (Homo sapiens) (UniProt P53779). Briefly: MAPK10 SGC Tm panel (DSF). To be noted: Compound concentration 20.0 uM.
In assay [6] the target is Mitogen-activated protein kinase 15 (Homo sapiens) (UniProt Q8TD08). Briefly: MAPK15 SGC Tm panel (DSF). To be noted: Compound concentration 20.0 uM.
Assay [7] addresses Maternal embryonic leucine zipper kinase (Homo sapiens) (UniProt Q14680). Briefly: MELK SGC Tm panel (DSF). To be noted: Compound concentration 20.0 uM.
In assay [8] the target is Serine/threonine-protein kinase 26 (Homo sapiens) (UniProt Q9P289). As to the kind of experiment: MST4 SGC Tm panel (DSF). To be noted: Compound concentration 20.0 uM.
For assay [9], the target named is Serine/threonine-protein kinase Nek7 (Homo sapiens) (UniProt Q8TDX7). Briefly: NEK7 SGC Tm panel (DSF). To be noted: Compound concentration 20.0 uM.
For assay [10], the target named is Serine/threonine-protein kinase 38-like (Homo sapiens) (UniProt Q9Y2H1). Briefly: STK38L SGC Tm panel (DSF). To be noted: Compound concentration 20.0 uM.
Assay [11] concerns the target STE20/SPS1-related proline-alanine-rich protein kinase (Homo sapiens) (UniProt Q9UEW8). Briefly: STK39 SGC Tm panel (DSF). To be noted: Compound concentration 20.0 uM.
Assay [12] has as its target Serine/threonine-protein kinase VRK1 (Homo sapiens) (UniProt Q99986). As to the kind of experiment: VRK1 SGC Tm panel (DSF). To be noted: Compound concentration 20.0 uM.
Assay [13] addresses 5-hydroxytryptamine receptor 1B (Homo sapiens) (UniProt P28222). To be noted: Compound concentration 10.0 uM.
Assay [14] addresses 5-hydroxytryptamine receptor 6 (Homo sapiens) (UniProt P50406). To be noted: Compound concentration 10.0 uM.
The target in assay [15] is Sodium-dependent noradrenaline transporter (Homo sapiens) (UniProt P23975). To be noted: Compound concentration 10.0 uM.
In assay [16] the target is Delta-type opioid receptor (Homo sapiens) (UniProt P41143). To be noted: Compound concentration 10.0 uM.
For assay [17], the target named is Histamine H2 receptor (Homo sapiens) (UniProt P25021). To be noted: Compound concentration 10.0 uM.
Assay [18] has as its target Alpha-2B adrenergic receptor (Homo sapiens) (UniProt P18089). To be noted: Compound concentration 10.0 uM.
The target of assay [19] is T1, B-cell lymphoma 6 protein (Homo sapiens, UniProt P41182). To be noted: SUD4, Compound concentration 1.0 uM.
The target of assay [20] is Transcription regulator protein BACH2 (Homo sapiens) (UniProt Q9BYV9). To be noted: SUD4, Compound concentration 1.0 uM.
Assay [21] addresses T2, Zinc finger and BTB domain-containing protein 44 (Homo sapiens) (UniProt Q8NCP5).
T2 sequence (whole entry): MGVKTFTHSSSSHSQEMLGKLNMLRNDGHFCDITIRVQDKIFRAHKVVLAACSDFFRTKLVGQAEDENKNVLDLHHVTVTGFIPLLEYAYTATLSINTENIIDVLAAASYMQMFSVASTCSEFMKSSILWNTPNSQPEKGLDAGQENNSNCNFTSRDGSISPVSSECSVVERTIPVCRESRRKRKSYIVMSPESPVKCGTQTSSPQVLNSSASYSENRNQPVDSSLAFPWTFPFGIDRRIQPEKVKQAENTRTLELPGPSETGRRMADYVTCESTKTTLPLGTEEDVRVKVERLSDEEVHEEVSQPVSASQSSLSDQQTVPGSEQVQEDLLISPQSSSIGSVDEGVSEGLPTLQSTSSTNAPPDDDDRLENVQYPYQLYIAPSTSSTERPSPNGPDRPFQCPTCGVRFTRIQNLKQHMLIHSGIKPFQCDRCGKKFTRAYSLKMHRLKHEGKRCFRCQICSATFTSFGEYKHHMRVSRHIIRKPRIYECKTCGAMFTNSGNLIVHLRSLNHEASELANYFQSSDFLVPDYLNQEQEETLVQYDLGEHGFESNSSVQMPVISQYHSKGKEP
To be noted: SUD4, Compound concentration 1.0 uM.

Assay [22] addresses T3, Zinc finger and BTB domain-containing protein 10 (Homo sapiens) (UniProt Q96DT7).
T3 sequence (whole entry): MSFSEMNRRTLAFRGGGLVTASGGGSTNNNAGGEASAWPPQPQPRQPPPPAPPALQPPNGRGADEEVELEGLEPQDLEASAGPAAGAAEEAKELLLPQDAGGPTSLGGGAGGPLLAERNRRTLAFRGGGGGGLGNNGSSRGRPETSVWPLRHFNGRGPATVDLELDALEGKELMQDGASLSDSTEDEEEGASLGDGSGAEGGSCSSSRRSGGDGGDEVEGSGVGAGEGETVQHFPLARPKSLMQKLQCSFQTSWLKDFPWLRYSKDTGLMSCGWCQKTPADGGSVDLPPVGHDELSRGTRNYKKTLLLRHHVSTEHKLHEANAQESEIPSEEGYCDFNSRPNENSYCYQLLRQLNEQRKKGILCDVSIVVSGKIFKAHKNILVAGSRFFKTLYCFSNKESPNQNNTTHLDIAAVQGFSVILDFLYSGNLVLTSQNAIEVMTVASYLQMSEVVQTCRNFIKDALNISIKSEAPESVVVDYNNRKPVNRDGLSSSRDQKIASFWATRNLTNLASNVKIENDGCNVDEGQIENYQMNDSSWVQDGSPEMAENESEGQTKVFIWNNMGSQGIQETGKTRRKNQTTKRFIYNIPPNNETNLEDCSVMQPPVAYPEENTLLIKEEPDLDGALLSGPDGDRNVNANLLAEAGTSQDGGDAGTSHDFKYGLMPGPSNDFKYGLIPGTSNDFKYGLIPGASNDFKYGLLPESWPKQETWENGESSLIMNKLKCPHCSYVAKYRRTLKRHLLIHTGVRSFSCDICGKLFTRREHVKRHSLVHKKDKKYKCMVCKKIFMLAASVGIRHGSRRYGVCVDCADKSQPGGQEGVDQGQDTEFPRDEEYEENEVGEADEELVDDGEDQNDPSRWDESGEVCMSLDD
To be noted: SUD4, Compound concentration 1.0 uM.

Assay [23] concerns the target T1, B-cell lymphoma 6 protein. To be noted: SUD4, Compound concentration 1.0 uM. The source holds these as a separate data set.

Serine/threonine-protein kinase 38-like (Homo sapiens), sequence (Q9Y2H1 2-464 limits assumed): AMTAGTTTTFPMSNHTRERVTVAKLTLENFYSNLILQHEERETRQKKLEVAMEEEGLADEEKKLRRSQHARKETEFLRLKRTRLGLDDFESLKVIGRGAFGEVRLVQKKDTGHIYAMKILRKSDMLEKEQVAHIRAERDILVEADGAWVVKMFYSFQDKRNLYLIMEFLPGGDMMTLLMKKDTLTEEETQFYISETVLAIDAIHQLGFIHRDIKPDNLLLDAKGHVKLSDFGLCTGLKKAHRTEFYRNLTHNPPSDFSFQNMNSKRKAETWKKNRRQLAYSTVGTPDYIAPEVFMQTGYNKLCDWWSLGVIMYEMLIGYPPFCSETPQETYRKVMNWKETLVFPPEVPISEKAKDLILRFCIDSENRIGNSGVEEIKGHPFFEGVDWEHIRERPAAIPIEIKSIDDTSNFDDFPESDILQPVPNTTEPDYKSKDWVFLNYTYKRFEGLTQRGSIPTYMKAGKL
Transcription regulator protein BACH2 (Homo sapiens), sequence (Q9BYV9 whole entry, the tested form may be a part): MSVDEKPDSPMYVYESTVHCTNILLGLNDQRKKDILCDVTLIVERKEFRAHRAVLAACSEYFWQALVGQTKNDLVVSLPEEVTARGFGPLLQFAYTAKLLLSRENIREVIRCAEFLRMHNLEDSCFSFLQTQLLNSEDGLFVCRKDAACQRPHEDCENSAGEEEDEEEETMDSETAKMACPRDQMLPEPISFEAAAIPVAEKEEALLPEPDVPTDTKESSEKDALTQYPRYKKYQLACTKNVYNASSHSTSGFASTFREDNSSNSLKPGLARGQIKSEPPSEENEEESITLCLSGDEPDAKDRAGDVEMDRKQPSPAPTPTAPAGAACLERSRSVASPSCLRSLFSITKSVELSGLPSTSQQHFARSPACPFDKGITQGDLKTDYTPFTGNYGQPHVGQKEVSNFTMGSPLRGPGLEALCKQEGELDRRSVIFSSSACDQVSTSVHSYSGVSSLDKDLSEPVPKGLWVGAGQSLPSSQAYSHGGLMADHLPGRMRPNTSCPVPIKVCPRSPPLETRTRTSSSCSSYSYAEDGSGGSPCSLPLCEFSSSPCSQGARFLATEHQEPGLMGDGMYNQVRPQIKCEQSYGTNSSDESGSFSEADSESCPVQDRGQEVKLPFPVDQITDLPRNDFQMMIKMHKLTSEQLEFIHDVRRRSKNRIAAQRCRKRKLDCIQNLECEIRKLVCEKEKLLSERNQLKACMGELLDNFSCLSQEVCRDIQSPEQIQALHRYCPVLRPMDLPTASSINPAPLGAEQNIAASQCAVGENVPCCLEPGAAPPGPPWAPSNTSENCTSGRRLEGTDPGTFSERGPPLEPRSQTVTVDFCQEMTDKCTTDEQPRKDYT
Mitogen-activated protein kinase 15 (Homo sapiens), sequence (Q8TD08 whole entry): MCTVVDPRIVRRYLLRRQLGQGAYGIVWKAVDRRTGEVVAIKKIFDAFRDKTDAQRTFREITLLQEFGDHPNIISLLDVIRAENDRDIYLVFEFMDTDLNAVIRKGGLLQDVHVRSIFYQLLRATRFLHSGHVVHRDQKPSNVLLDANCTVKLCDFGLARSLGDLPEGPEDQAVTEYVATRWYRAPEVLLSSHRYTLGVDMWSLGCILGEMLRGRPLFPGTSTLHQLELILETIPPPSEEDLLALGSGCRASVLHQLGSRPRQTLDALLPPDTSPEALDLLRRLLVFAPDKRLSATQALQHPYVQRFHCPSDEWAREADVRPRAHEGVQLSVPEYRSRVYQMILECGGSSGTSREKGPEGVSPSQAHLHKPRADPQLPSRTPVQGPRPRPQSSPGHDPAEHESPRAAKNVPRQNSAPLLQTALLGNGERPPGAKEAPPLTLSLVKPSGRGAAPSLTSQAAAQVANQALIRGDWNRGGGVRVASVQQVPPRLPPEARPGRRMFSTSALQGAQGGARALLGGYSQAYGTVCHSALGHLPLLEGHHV
Vasopressin V1a receptor (Homo sapiens), sequence (P37288 whole entry, looked up): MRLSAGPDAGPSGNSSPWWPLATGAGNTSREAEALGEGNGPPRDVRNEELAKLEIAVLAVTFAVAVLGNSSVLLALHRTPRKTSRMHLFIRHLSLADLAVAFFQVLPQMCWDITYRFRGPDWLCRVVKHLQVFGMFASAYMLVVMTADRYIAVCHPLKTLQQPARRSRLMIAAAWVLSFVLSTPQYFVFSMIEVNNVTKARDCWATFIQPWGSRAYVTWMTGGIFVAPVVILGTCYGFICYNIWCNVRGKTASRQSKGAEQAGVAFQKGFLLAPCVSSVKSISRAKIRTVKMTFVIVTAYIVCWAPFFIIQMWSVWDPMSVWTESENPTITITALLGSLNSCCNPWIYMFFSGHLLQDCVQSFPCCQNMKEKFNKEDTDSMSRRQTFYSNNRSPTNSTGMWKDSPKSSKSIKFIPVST
Delta-type opioid receptor (Homo sapiens), sequence (P41143 whole entry): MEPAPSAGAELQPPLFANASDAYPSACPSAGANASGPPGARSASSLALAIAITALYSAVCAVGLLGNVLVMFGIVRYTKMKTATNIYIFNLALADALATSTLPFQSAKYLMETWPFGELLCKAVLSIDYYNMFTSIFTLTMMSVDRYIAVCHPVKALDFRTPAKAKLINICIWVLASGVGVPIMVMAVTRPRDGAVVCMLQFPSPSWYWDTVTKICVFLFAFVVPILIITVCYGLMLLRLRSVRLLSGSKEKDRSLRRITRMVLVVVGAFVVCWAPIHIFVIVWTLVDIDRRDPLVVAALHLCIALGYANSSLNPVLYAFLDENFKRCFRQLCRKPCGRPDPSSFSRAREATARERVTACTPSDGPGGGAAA
Maternal embryonic leucine zipper kinase (Homo sapiens), sequence (Q14680 whole entry, looked up): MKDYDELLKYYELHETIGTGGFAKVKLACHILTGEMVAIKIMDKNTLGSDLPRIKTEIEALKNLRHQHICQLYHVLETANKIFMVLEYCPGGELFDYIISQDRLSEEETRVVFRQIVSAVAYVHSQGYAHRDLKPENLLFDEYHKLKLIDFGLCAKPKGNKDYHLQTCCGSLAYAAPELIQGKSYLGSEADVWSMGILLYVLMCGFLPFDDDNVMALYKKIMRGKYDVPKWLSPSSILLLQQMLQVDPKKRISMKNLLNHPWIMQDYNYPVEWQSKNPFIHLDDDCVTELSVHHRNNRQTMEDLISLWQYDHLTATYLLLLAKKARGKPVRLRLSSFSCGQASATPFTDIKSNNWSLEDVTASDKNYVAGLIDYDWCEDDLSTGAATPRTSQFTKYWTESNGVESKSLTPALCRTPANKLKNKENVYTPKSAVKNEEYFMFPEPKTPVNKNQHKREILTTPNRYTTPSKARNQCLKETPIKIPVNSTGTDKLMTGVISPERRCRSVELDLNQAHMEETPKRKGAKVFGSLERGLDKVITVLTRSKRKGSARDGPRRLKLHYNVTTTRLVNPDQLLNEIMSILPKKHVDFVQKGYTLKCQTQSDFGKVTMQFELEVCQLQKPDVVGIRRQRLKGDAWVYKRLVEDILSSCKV
Mitogen-activated protein kinase 10 (Homo sapiens), sequence (P53779 whole entry): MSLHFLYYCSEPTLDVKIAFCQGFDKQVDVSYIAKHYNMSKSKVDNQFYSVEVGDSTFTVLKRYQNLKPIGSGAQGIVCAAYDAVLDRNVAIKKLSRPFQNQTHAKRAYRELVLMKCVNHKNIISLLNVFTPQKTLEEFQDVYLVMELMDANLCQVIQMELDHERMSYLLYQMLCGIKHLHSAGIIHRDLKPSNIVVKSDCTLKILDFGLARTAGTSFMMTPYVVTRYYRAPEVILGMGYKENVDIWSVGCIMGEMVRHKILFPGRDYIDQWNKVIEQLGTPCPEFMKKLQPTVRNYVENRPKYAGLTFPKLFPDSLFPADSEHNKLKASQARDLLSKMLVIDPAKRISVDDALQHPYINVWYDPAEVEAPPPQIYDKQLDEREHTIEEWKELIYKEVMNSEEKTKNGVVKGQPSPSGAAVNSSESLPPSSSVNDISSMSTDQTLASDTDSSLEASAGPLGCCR
Casein kinase II subunit alpha' (Homo sapiens), sequence (P19784 whole entry, looked up): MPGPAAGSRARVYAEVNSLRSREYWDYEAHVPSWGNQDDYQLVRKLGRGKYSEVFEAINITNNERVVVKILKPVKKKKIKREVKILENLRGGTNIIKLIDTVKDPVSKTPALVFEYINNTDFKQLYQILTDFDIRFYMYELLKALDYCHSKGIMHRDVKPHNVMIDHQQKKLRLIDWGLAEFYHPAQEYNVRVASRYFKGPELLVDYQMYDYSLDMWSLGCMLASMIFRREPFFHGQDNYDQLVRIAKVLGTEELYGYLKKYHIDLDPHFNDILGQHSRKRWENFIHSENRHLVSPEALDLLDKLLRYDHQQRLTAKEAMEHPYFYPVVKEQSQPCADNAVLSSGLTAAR
Sodium-dependent noradrenaline transporter (Homo sapiens), sequence (P23975 whole entry): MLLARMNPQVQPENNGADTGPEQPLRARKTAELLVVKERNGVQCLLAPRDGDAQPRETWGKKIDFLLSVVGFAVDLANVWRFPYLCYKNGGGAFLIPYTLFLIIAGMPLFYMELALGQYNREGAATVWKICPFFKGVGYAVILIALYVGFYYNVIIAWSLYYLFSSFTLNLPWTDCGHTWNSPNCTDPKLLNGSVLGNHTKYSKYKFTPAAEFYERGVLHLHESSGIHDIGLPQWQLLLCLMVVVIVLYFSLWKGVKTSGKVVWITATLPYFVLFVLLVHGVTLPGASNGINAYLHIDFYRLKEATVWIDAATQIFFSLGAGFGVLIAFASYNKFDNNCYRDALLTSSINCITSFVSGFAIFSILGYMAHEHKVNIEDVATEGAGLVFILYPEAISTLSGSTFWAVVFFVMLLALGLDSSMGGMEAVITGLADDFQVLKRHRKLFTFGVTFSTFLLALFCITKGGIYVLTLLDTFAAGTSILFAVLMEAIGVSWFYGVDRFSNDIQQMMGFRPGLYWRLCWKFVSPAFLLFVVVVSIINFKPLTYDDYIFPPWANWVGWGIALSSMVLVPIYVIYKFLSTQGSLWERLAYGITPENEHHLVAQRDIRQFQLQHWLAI

`C[C@@H]1CN(c2ncc(Cl)c(Nc3ccc4c(c3)n(CCC(C)(C)O)c(=O)n4C)n2)C[C@H](C)C1(F)F`: the inhibition in [1] is 78.6%; in assay [13], 3.38%; in [14], 3.94%; in assay [15], 18.1%; in assay [16], 18.1%; in assay [17], 43.7%. Also, the inhibition in assay [18] is 7.28%. Also, the Tm in assay [2] is 44 °C; in [3], 43 °C; in [4], 50 °C; in assay [5], 48 °C; in [6] it was 50 °C; in assay [7], 41 °C. Besides, the Tm in [8] is 44 °C; in assay [9], 42 °C; in assay [10], 47 °C; in assay [11], 37 °C; in assay [12], 46 °C. For the same molecule, the LogFC in assay [19] is -1.2; in assay [20] it was -0.0358; in [21], -0.00843; in assay [22], 0.0283; in assay [23], -1.13.

In general, inhibition refers to the drop in the measured response relative to a control, in per cent. Broadly, the Tm is the temperature at the midpoint of the melting transition.
